Assay type in all cases: cell-based, human
Assay [1] deals with fetal lung fibroblasts (MRC5 immortal cell line). In words: TGFβ-induced collagen type I, immunoblot. As to conditions: peptide 1 μg/ml, TGFβ 5 ng/ml, 24 h. As for the experimental part: FIG. 11, comprising FIG. 11A and FIG. 11B, depicts the effect of M10 on TGFβ-induced collagen type 1. FIG. 11A depicts MRC5 cells, normal lung fibroblasts, and normal skin fibroblasts were incubated with or without M10, scrambled peptide (Scr), and TGFβ for 48 hours in serum-free medium. Cell extracts were immunoblotted with anticollagen type I and anti-β-actin antibodies. FIG. 11B depicts densitometric analysis of collagen type I immunoblots from 2 independent experiments.
FIG. 17A depicts 1403 and 1404 peptides inhibit collagen in TGFβ-stimulated LF. Cells were incubated with and without TGFβ (5 ng/ml), 1403, and 1404 peptides (1 μg/ml) or scrambled peptide (Control, Co) for 24 h and analyzed by immunoblotting using anti-collagen type I antibody. […] AEC were incubated with or without 1403, 1404, or scrambled (Control) peptides, FasL, and cisplatin for 24 hours and analyzed by Caspase 3 Assay from Abcam.
Cells were collected and analyzed by immunoblotting as previously described (Bogatkevich et al., J Biol Chem. 2001, 276:45184-45192; Bogatkevich et al., Arthritis Rheum. 2007, 56:3468-3477). The phosphorylation of Smad2 was analyzed by Western blot using anti-phospho-Smad2 antibody in accordance with the manufacturer's instructions (Cell Signaling Technology). […] Total amount of Smad2 was evaluated by re-blotting with anti-Smad2 polyclonal antibody. […]
A general note: A western blot detects proteins with antibodies after separation by electrophoresis.

Assay [2] concerns alveolar epithelial cells (AEC, A549). Nature of the assay: Caspase 3 Assay, FasL- and cisplatin-induced apoptosis. The settings on record: for FasL-induced apoptosis (caspase 3 activity) / cisplatin-induced apoptosis (caspase 3 activity): AEC, 24 hours, peptide treatment, p<0.01; for apoptosis, level of active caspase 3: AEC incubated 24 h with the inducer. On the procedure: FIG. 7 depicts alveolar epithelial cells (AEC) transfected with MET WT but not with MET D1398G are protected from FasL- and cisplatin-induced apoptosis. Transfected AEC were incubated with or without FasL or cisplatin for 24 hours, collected with lysis buffer and analyzed by Caspase 3 Assay as detailed in Materials and Methods.
FIG. 17A depicts 1403 and 1404 peptides inhibit collagen in TGFβ-stimulated LF. Cells were incubated with and without TGFβ (5 ng/ml), 1403, and 1404 peptides (1 μg/ml) or scrambled peptide (Control, Co) for 24 h and analyzed by immunoblotting using anti-collagen type I antibody. FIG. 17B depicts 1403 and 1404 but not M10 protect AEC from FasL- and cisplatin-induced apoptosis. AEC were incubated with or without 1403, 1404, or scrambled (Control) peptides, FasL, and cisplatin for 24 hours and analyzed by Caspase 3 Assay from Abcam.
Caspase 3 Assay Kit (Abcam, Cambridge, Mass.) was used to detect apoptosis in cultured cells. The cells were plated on 100 mm plates, transfected with MET WT or D1398G, and treated with or without FasL and cisplatin for 24 h. Cell lysates were collected in accordance to with the manufacturer's instructions, transferred to a 96-well plate, and incubated with DEVD-p-NA substrate at 37° C. for 2 hours followed by reading the absorbance at 405 nm on a spectrophotometer.
A cell-protective effect of HGF and MET have been reported in AEC in numerous studies (Crestani, et al., Proc Am Thorac Soc, 2012, 9(3):158-63 and Gazdhar, et al., Hum Gene Ther, 2013, 24(1):105-16). To investigate if the D1398G mutation interferes with anti-apoptotic effects of MET in AEC, apoptosis of AEC with FasL and cisplatin and measured caspase 3 activity in cell lysates was induced. […] In contrast, AEC transfected with the MET D1398G mutant were not protected from FasL- and cisplatin-induced apoptosis.
To investigate if the 1403 and 1404 peptides have anti-apoptotic effects in AEC, apoptosis of AEC was induced with FasL and cisplatin and measured caspase 3 activity in cell lysates. […] In contrast, AEC treated with scrambled peptide were not protected from FasL- and cisplatin-induced apoptosis (FIG. 17B).

For assay [3], the system named is caspase-3. Nature of the assay: Cisplatin-induced cleaved caspase-3, Western blot. The settings on record: for cleaved or active caspase-3 by Western blot: 50 μM for 24 h.
Description: FIG. 5, comprising FIG. 5A and FIG. 5B, depicts effects of cisplatin in lung fibroblasts (LF) and alveolar epithelial cells (AEC) transfected with MET WT and MET D1398G. FIG. 5A depicts transfected cells were incubated with or without cisplatin for 24 hours. The cells were collected with lysis buffer and analyzed by Western blot with indicated antibodies. FIG. 5B depicts densitometric analysis of uncleaved MET detected by C12 antibody. Values are the mean and SD from three independent experiments.

For the molecule “DEVDTRPAS (1404 Peptide) [compound 1404, M5 peptide with added caspase-3 cleavage sites]”, the “levels of TGFβ-induced collagen” value in assay [1] is listed as “significantly reduced”. For the same molecule, in assay [2], the “FasL-induced apoptosis (caspase 3 activity)” value is recorded as “significantly reduced apoptosis” and the “cisplatin-induced apoptosis (caspase 3 activity)” value is “significantly reduced apoptosis”.
As to “DDEVDTRPAS (1403 Peptide) [compound 1403, M5 peptide with added caspase-3 cleavage sites and an additional N-terminal aspartic acid]”, the “levels of TGFβ-induced collagen” value in assay [1] is listed as “significantly reduced”. Besides, in assay [2], the “FasL-induced apoptosis (caspase 3 activity)” value is reported as “significantly reduced apoptosis” and the “cisplatin-induced apoptosis (caspase 3 activity)” value is “significantly reduced apoptosis”.
In the case of `N.N.[Cl][Pt][Cl]` [cisplatin], in assay [3] (AEC and LF, 100 μM), the “cleaved caspase by Western blot” value is on record as “yielded cleaved caspase not only in AEC but also in LF”. Moreover, the “cleaved or active caspase-3 by Western blot” value in assay [3] (AEC) is reported as “detectable”; in assay [3] (LF), “not in LF”. In addition, the “apoptosis, level of active caspase 3” value in assay [2] is “resulted in apoptosis reflected by an increase in the level of active caspase 3”.

B1: FasL: inducer of apoptosis in AEC (protein, UniProt P48023 130-281, looked up)
Tumor necrosis factor ligand …: QIGHPSPPPEKKELRKVAHLTGKSNSRSMPLEWEDTYGIVLLSGVKYKKGGLVINETGLYFVYSKVYFRGQSCNNLPLSHKVYMRNSKYPQDLVMMEGKMMSYCTTGQMWARSSYLGAVFNLTSADHLYVNVSELSLVNFEESQTFFGLYKL
As for B1, in assay [2], the “apoptosis, level of active caspase 3” value was “resulted in apoptosis reflected by an increase in the level of active caspase 3”.

Source of the values: patent publication US10344071B2, “Identification of novel anti-fibrotic peptide in C-terminal region of the MET receptor tyrosine kinase” (MUSC Foundation for Research Development, priority 2015, dated 2019).
